Data: PubChem BioAssay (NCI)
“And” between values parts separate entries of the source, which are not always exact repeats. Equal values may be shown once.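 1) Cells in 96-well plates. 2) Compound, 48 h, 5 concentrations. 3) Linear interpolation between surrounding doses. 4) Unreached endpoint = highest concentration. The concentration for 50% growth inhibition is given as GI50. The concentration for full growth arrest is given as TGI.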

Key:
Experiment in all cases: growth of human tumour cells (NCI), 48 h
[1] = tested on: A498 renal
[2] = tested on: A549 NSCLC
[3] = tested on: EKVX NSCLC
[4] = tested on: HCT-15 colon
[5] = tested on: HT29 colon
[6] = tested on: LOX IMVI melanoma
[7] = tested on: M14 melanoma
[8] = tested on: NCI-H23 lung
[9] = tested on: OVCAR-8 ovarian
[10] = tested on: SK-MEL-28 melanoma

Row | SMILES | TGI [1] | TGI [2] | TGI [3] | TGI [4] | TGI [5] | TGI [6] | TGI [7] | TGI [8] | TGI [9] | TGI [10] | GI50 [1] | GI50 [2] | GI50 [3] | GI50 [4] | GI50 [5] | GI50 [6] | GI50 [7] | GI50 [8] | GI50 [9] | GI50 [10]
1 | O=C1C=CC(=O)c2c(O)c(N(CCCl)CCCl)c(Cl)c(O)c21 | > 9.53 µM | > 10 µM | > 10 µM | > 8.58 µM | > 8.53 µM | 6.25 µM | 6.06 µM | > 8.05 µM | 6.9 µM | > 6.98 µM | – | – | – | – | – | – | – | – | – | –
2 | N=C1C=C(N)C(=O)c2ccccc21 | 2.95 µM | 2.7 µM | 0.421 µM | 0.578 µM | 1.82 µM | 0.421 µM | 0.422 µM | 0.61 µM | 0.661 µM | 1.64 µM | 1.57 µM | 1.04 µM | 0.202 µM | 0.225 µM | 0.386 µM | 0.17 µM | 0.209 µM | 0.219 µM | 0.248 µM | 0.496 µM
3 | CN1C/C(=C\c2ccc(C(=O)O)cc2)C(=O)/C(=C/c2ccc(C(=O)O)cc2)C1 | > 100 µM | > 100 µM | > 100 µM | > 100 µM | > 100 µM | > 100 µM | > 100 µM | > 100 µM | > 100 µM | > 100 µM | – | – | – | – | – | – | – | – | – | –
4 | NC1=Nc2ccccc2Sc2ccccc21 | > 100 µM | > 100 µM | > 100 µM | > 100 µM | > 100 µM | > 100 µM | > 100 µM | > 100 µM | > 100 µM | > 100 µM | – | – | – | – | – | – | – | – | – | –
5 | CC[C@@H](C(=O)[C@@H](C)[C@@H](O)[C@H](C)[C@@H]1O[C@@H]([C@@H](CC)C(=O)O)CC[C@@H]1C)[C@H]1O[C@]2(C=C[C@@H](O)[C@]3(CC[C@@](C)([C@H]4CC[C@](O)(CC)[C@H](C)O4)O3)O2)[C@H](C)C[C@@H]1C | 0.821 µM | 14.1 µM | 24.8 µM | > 100 µM | 15 µM | 12.9 µM | 3.05 µM | 11.4 µM | 29.5 µM | 2.38 µM | 0.0567 µM | 0.421 µM | 1.11 µM | 0.912 µM | 0.331 µM | 0.596 µM | 1.39 µM | 0.528 µM | 1.2 µM | 1.14 µM
6 | COC(=O)C(=O)C(C#N)c1c(Cl)cccc1Cl (stereo not drawn) | > 100 µM | > 100 µM | > 100 µM | > 100 µM | > 100 µM | > 100 µM | > 100 µM | > 100 µM | > 100 µM | > 100 µM | – | – | – | – | – | – | – | – | – | –
7 | Cn1cccc1-c1cc(-c2ccccc2)nc(N)c1C#N | > 100 µM | > 100 µM | > 100 µM | > 100 µM | > 100 µM | > 100 µM | > 100 µM | > 100 µM | > 100 µM | > 100 µM | 36.8 µM | > 100 µM | 98.1 µM | > 100 µM | > 100 µM | > 100 µM | > 100 µM | > 100 µM | > 100 µM | > 100 µM
8 | O=C1CC2OCC=C3CN4CCC5(C(=O)O)C(N1)C2C3CC45 (stereo not drawn) | > 100 µM | > 100 µM | > 100 µM | > 100 µM | > 100 µM | > 100 µM | > 100 µM | > 100 µM | > 100 µM | > 100 µM | – | – | – | – | – | – | – | – | – | –
9 | C/C(=N\Nc1n[nH]c(=S)n1N)c1c(O)cc(C)oc1=O | > 100 µM | > 100 µM | > 100 µM | > 100 µM | > 100 µM | > 100 µM | > 100 µM | > 100 µM | > 100 µM | > 100 µM | – | – | – | – | – | – | – | – | – | –
10 | O=C(/C=C/c1ccc(Cl)cc1Cl)c1ccc(Cl)cc1Cl | 48.5 µM | 47.2 µM | 58.7 µM | 31 µM | > 60.1 µM | 30.1 µM | 46.3 µM | 67.2 µM | 39.6 µM | > 74.4 µM | 20.7 µM | 19.9 µM | 20.6 µM | 14.4 µM | 15.2 µM | 15.8 µM | 18.7 µM | 20.5 µM | 16.6 µM | 27.2 µM
11 | CN(C)Cc1cc(C(C)(C)C)cc(CN(C)C)c1O | > 100 µM | > 100 µM | > 100 µM | > 100 µM | > 100 µM | > 100 µM | > 100 µM | > 100 µM | > 100 µM | > 100 µM | – | – | – | – | – | – | – | – | – | –
12 | COC(=O)Nc1nc2ccc(C(=O)c3cccs3)cc2[nH]1 | 1.58 µM | 55.8 µM and > 100 µM | 15.2 µM and > 100 µM | – | – | > 100 µM | 2.79 µM and 0.432 µM | 0.602 µM | 15.7 µM and > 100 µM | 61.8 µM and > 100 µM | 0.203 µM | 0.239 µM | 0.584 µM | 0.106 µM | 0.0552 µM | 0.536 µM | 0.0797 µM | 0.277 µM | 0.487 µM | 0.376 µM
13 | Cc1c2ccccc2c(C)n2c1nc1cc(Cl)c(Cl)cc12 | > 100 µM | > 100 µM | > 100 µM | > 100 µM | > 100 µM | > 100 µM | > 100 µM | > 100 µM | > 100 µM | > 100 µM | > 100 µM | > 100 µM | 93.7 µM | 93.5 µM | 31 µM | 25.2 µM | > 100 µM | > 100 µM | > 100 µM | > 100 µM
